Converted amounts (≈) assume the structure as drawn. Marks after values point to notes of the source that are not given here.
test system: HIV-1; experiment: microbe, parasite or virus in culture; type: cell-based; details: Human immunodeficiency virus 1; read-out: EC50 against HIV-1

SMILES | EC50 [µg/mL]
Cc1c(N)nc(N)nc1OCCOCP(=O)(O)O [Example 5, 5-Methyl-2,4-diamino-6-[2-(phosphonomethoxy)ethoxy]pyrimidine] | 0.065 (≈ 0.234 µM)

test system: HIV-2; experiment: microbe, parasite or virus in culture; type: cell-based; details: Human immunodeficiency virus 2; read-out: EC50 against HIV-2

SMILES | EC50 [µg/mL]
Cc1c(N)nc(N)nc1OCCOCP(=O)(O)O [Example 5, 5-Methyl-2,4-diamino-6-[2-(phosphonomethoxy)ethoxy]pyrimidine] | 0.065 (≈ 0.234 µM)

test system: HIV; experiment: microbe, parasite or virus in culture; type: cell-based; details: Human immunodeficiency virus 1; HIV type not specified; read-out: inhibitory against HIV at

SMILES | EC50 [µg/mL]
Nc1nc(N)c(C=O)c(OCCOCP(=O)(O)O)n1 [Example 9, 5-Formyl-2,4-diamino-6-[2-(phosphonomethoxy)ethoxy]pyrimidine] | 0.8 to 3.3 (≈ 2.74 to 11.3 µM)
N#Cc1c(N)nc(N)nc1OCCOCP(=O)(O)O [Example 8, 5-Cyano-2,4-diamino-6-[2-(phosphonomethoxy)ethoxy]pyrimidine] | 0.8 to 3.3 (≈ 2.77 to 11.4 µM)

same assay, conditions: ratio of anti-HIV to anti-MSV potency

SMILES | anti-HIV activity less potent than anti-MSV activity [fold]
Nc1cc(OCCOCP(=O)(O)O)nc(N)n1 [5-unsubstituted compound, 2,4-diamino-6-[2-(phosphonomethoxy)ethoxy]pyrimidine, reference compound] | 20

test system: MSV; experiment: Antiviral activity against MSV in cell culture; type: cell-based, murine (MSV); details: Mus musculus; in vitro; read-out: inhibitory against MSV (EC50)

SMILES | EC50 [µg/mL]
Nc1nc(N)c(C=O)c(OCCOCP(=O)(O)O)n1 [Example 9, 5-Formyl-2,4-diamino-6-[2-(phosphonomethoxy)ethoxy]pyrimidine] | 2.7 to 6 (≈ 9.24 to 20.5 µM)
Cc1c(N)nc(N)nc1OCCOCP(=O)(O)O [Example 5, 5-Methyl-2,4-diamino-6-[2-(phosphonomethoxy)ethoxy]pyrimidine] | 0.04 to 0.06 (≈ 0.144 to 0.216 µM)
N#Cc1c(N)nc(N)nc1OCCOCP(=O)(O)O [Example 8, 5-Cyano-2,4-diamino-6-[2-(phosphonomethoxy)ethoxy]pyrimidine] | 2.7 to 6 (≈ 9.34 to 20.7 µM)

test system: VZV; experiment: Anti-VZV activity; type: cell-based; details: not given

SMILES | anti-VZV activity
Cc1c(N)nc(N)nc1OCCOCP(=O)(O)O [Example 5, 5-Methyl-2,4-diamino-6-[2-(phosphonomethoxy)ethoxy]pyrimidine] | moderate anti-VZV activity

test system: MSV-induced tumor cell formation; experiment: Inhibitory activity against MSV-induced tumor cell formation in newborn NMRI mice; type: in vivo; details: 5 mg/kg i.p. at days 1-5; virus i.m. at day 1
Procedure: The 5-cyano (Example 8), 5-methyl (Example 5) and 5-chloro-2,4-diamino-6-[2-(phosphonomethoxy)ethoxy]pyrimidine were also evaluated for their antiretroviral activity in MSV-infected newborn NMRI mice in comparison with PMEA and (R)-PMPA. […] At 5 mg/kg, 90% of mice were free from tumor formation in the presence of 5-methyl derivative, compared with 70% and 10% in the presence of PMEA and (R)-PMPA. […] This phenomenon was also seen with PMEA at 50 and 20 mg/kg, but not with (R)-PMPA at 50 mg/kg.
Inhibitory activity of test compounds against MSV-induced tumor cell formation in newborn NMRI mice

SMILES | % survivors on day 12 | Mean day of animal death [days] | Mean day of tumor initiation [days] | % tumor free on day 12 [%]
Nc1nc(N)c(Cl)c(OCCOCP(=O)(O)O)n1 [Example 5-Cl, 5-chloro-2,4-diamino-6-[2-(phosphonomethoxy)ethoxy]pyrimidine] | (45%) | 11.5 ± 0.69 | 6.70 ± 0.80 | –
Cc1c(N)nc(N)nc1OCCOCP(=O)(O)O [Example 5, 5-Methyl-2,4-diamino-6-[2-(phosphonomethoxy)ethoxy]pyrimidine] | 100% | > 12 | 8.0 | 90
N#Cc1c(N)nc(N)nc1OCCOCP(=O)(O)O [Example 8, 5-Cyano-2,4-diamino-6-[2-(phosphonomethoxy)ethoxy]pyrimidine] | – | 10.9 ± 0.57 | 6.40 ± 0.70 | –
Nc1ncnc2c1ncn2CCOCP(=O)(O)O [PMEA, 9-(2-phosphonylmethoxyethyl)adenine] | 100% | > 12 | 9.33 ± 0.58 | 70
C[C@H](Cn1cnc2c(N)ncnc21)OCP(=O)(O)O [(R)-PMPA] | 100% | > 12 | 10.5 ± 2.12 | 10

same assay, conditions: 20 mg/kg i.p. at days 1-5; virus i.m. at day 1

SMILES | % survivors on day 12 | % tumor free on day 12 [%] | Mean day of animal death [days] | Mean day of tumor initiation [days]
Nc1nc(N)c(Cl)c(OCCOCP(=O)(O)O)n1 [Example 5-Cl, 5-chloro-2,4-diamino-6-[2-(phosphonomethoxy)ethoxy]pyrimidine] | (80%) | 10 | 11.8 ± 0.50 | 7.44 ± 1.42
Cc1c(N)nc(N)nc1OCCOCP(=O)(O)O [Example 5, 5-Methyl-2,4-diamino-6-[2-(phosphonomethoxy)ethoxy]pyrimidine] | 100% | 100 | > 12 | > 12
N#Cc1c(N)nc(N)nc1OCCOCP(=O)(O)O [Example 8, 5-Cyano-2,4-diamino-6-[2-(phosphonomethoxy)ethoxy]pyrimidine] | (60%) | – | 11.5 ± 0.58 | 7.20 ± 1.03
Nc1ncnc2c1ncn2CCOCP(=O)(O)O [PMEA, 9-(2-phosphonylmethoxyethyl)adenine] | 90% | 100 | 9.0 | > 12
C[C@H](Cn1cnc2c(N)ncnc21)OCP(=O)(O)O [(R)-PMPA] | 100% | 100 | > 12 | > 12

same assay, conditions: 50 mg/kg i.p. at days 1-5; virus i.m. at day 1

SMILES | % survivors on day 12 [%] | % tumor free on day 12 [%] | Mean day of animal death | Mean day of tumor initiation [days]
Nc1nc(N)c(Cl)c(OCCOCP(=O)(O)O)n1 [Example 5-Cl, 5-chloro-2,4-diamino-6-[2-(phosphonomethoxy)ethoxy]pyrimidine] | 100 | 15 | > 12 days | 8.76 ± 1.86
Cc1c(N)nc(N)nc1OCCOCP(=O)(O)O [Example 5, 5-Methyl-2,4-diamino-6-[2-(phosphonomethoxy)ethoxy]pyrimidine] | – | 100 | 10.1 ± 1.10^b day | > 12
N#Cc1c(N)nc(N)nc1OCCOCP(=O)(O)O [Example 8, 5-Cyano-2,4-diamino-6-[2-(phosphonomethoxy)ethoxy]pyrimidine] | 100 | – | > 12 days | 8.20 ± 1.62
Nc1ncnc2c1ncn2CCOCP(=O)(O)O [PMEA, 9-(2-phosphonylmethoxyethyl)adenine] | – | 100 | 8.80 ± 0.63^b day | > 12
C[C@H](Cn1cnc2c(N)ncnc21)OCP(=O)(O)O [(R)-PMPA] | 100 | 100 | > 12 days | > 12

same assay, conditions: 50 mg/kg i.p. at days 1-5; virus i.m. at day 1; listed as 5-methyl-2,4-diamino-6-[2-(phosphonomethoxy)ethoxy]pyrimidine

SMILES | Mean day of animal death [days]
Cc1c(N)nc(N)nc1OCCOCP(=O)(O)O [Example 5, 5-Methyl-2,4-diamino-6-[2-(phosphonomethoxy)ethoxy]pyrimidine] | 10.1

same assay, conditions: among the 5-cyano, 5-chloro and 5-methyl derivatives

SMILES | order of antiviral efficacy
Cc1c(N)nc(N)nc1OCCOCP(=O)(O)O [Example 5, 5-Methyl-2,4-diamino-6-[2-(phosphonomethoxy)ethoxy]pyrimidine] | most effective agent
N#Cc1c(N)nc(N)nc1OCCOCP(=O)(O)O [Example 8, 5-Cyano-2,4-diamino-6-[2-(phosphonomethoxy)ethoxy]pyrimidine] | least effective agent

same assay, conditions: at 50 and 20 mg/kg

SMILES | tumor formation
Cc1c(N)nc(N)nc1OCCOCP(=O)(O)O [Example 5, 5-Methyl-2,4-diamino-6-[2-(phosphonomethoxy)ethoxy]pyrimidine] | completely prevented
Nc1ncnc2c1ncn2CCOCP(=O)(O)O [PMEA, 9-(2-phosphonylmethoxyethyl)adenine] | completely prevented
C[C@H](Cn1cnc2c(N)ncnc21)OCP(=O)(O)O [(R)-PMPA] | completely prevented

test system: not given; experiment: not given; details: not given

SMILES | melting point
Nc1nc(N)c(CC(=O)O)c(OCCOCP(=O)(O)O)n1 (hydrate or solvate) | 228 to 229 °C
Nc1nc(N)c(-c2ccccc2)c(OCCOCP(=O)(O)O)n1 (hydrate or solvate) | 230 to 231 °C
CCOC(=O)Cc1c(N)nc(N)nc1OCCOCP(=O)(O)O | 199 to 200 °C
N#CCc1c(N)nc(N)nc1OCCOCP(=O)(O)O | 258 to 259 °C (dec.)
Nc1nc(N)c(C2CC2)c(OCCOCP(=O)(O)O)n1 | 255 to 256 °C
Nc1nc(N)c(C=O)c(OCCOCP(=O)(O)O)n1 (hydrate or solvate) [Example 9, 5-Formyl-2,4-diamino-6-[2-(phosphonomethoxy)ethoxy]pyrimidine] | 225 to 227 °C
Nc1nc(N)c(Cc2ccccc2)c(OCCOCP(=O)(O)O)n1 (hydrate or solvate) | 241 to 242 °C

test system: not listed separately; experiment: Cytostatic activity in CEM cell cultures; details: human

SMILES | CC50 [µg/mL]
Cc1c(N)nc(N)nc1OCCOCP(=O)(O)O [Example 5, 5-Methyl-2,4-diamino-6-[2-(phosphonomethoxy)ethoxy]pyrimidine] | 1.3 to 4.1 (≈ 4.67 to 14.7 µM)
Nc1ncnc2c1ncn2CCOCP(=O)(O)O [PMEA, 9-(2-phosphonylmethoxyethyl)adenine] | 11 (≈ 40.3 µM)
